According to ChEMBL document CHEMBL4219043, “Beyond the Rule of 5: Lessons Learned from AbbVie's Drugs and Compound Collection” (J Med Chem, 2018):

Tests used:
[1] = biological target: Apoptosis regulator Bcl-2 (Homo sapiens, UniProt P10415); assay: Inhibition of Bcl2 (unknown origin)
RS4-11 = assay: Antiproliferative activity against human RS4:11 cells in presence of 10% human serum; type: functional, cell-based
MOLT-4 = assay: Antiproliferative activity against human MOLT4 cells in presence of 10% human serum; type: functional, cell-based
[2] = Oral bioavailability in dog; type: ADME, organism-based, Canis lupus familiaris; details: in vivo

Apoptosis regulator Bcl-2, sequence (P10415 whole entry): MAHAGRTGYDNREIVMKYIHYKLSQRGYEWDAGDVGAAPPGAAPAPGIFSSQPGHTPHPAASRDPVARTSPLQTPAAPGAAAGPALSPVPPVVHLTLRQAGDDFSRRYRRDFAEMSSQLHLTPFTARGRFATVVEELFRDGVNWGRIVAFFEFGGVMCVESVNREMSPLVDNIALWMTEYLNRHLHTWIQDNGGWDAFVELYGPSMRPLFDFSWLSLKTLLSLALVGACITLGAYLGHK

Row | Ki [1] [nM] | EC50 (RS4-11) [nM] | EC50 (MOLT-4) [nM] | bioavailability [2] [%] | Structure (SMILES)
1 | < 0.01 | 6 | > 5000 | – | CO[C@H]1CC[C@H](CNc2ccc(S(=O)(=O)NC(=O)c3ccc(N4CCN(CC5=C(c6ccc(Cl)cc6)CC(C)(C)CC5)CC4)cc3Oc3cnc4[nH]ccc4c3)cc2[N+](=O)[O-])CC1 [A-1211212]
2 | – | 112 | 303 | 48 | CC1(C)CCC(c2ccc(Cl)cc2)=C(CN2CCN(c3ccc(C(=O)NS(=O)(=O)c4ccc(N[C@H](CCN5CCOCC5)CSc5ccccc5)c(S(=O)(=O)C(F)(F)F)c4)cc3)CC2)C1 [NAVITOCLAX]
